# Where two headings read alike, the source gives them in different places.
# Tests used:
# BALB 3T3 cells = experiment: in vitro 3T3 NRU test, phototoxicity; type: cell-based, mouse; conditions: for IC50: Mus musculus, light or radiation study; for PIF (photo-irritancy factor): PIF = CC50/PC50, <2 not phototoxic
# Procedure: Compounds 2–5 were studied for cytotoxicity/phototoxicity by an in vitro 3T3 NRU-test. The cell line BALB 3T3, clone A31 (mouse embryo fibroblasts), was incubated with the test compounds at a concentration from 15 to 4000 µg/mL for 24 h at 37 °C, 5% CO2, and 95% humidity. The cytotoxicity and phototoxicity were expressed in percentages relative to the negative control determined. […] Based on the dose–response curves, the CC50/PC50 values (50% cytotoxic/phototoxic concentration) were calculated by nonlinear regression analysis (Table 1). The CC50 values can be used to calculate the PIF (photo-irritancy factor) for each test compound according to the following formula: PIF = CC50/PC50.
# BALB/3T3 cells were cultured in 75 cm^2 tissue culture flasks in DMEM, 10% FBS, 2 mM glutamine, and antibiotics (penicillin 100 U/mL and streptomycin-100 µg/mL) at 37 °C, 5% CO2, and 90% relative humidity. Cytotoxicity/phototoxicity was assessed by a validated BALB/3T3 clone A31 neutral red uptake assay (3T3 NRU test). Briefly, cells were plated in a 96-well microtiter plate at a density of 1 × 10^4 cells/100 µL/well and incubated for 24 h. A wide concentration range was applied for the test compounds. For the phototoxicity tests, 96-well plates were irradiated with a dose of 2.4 J/cm^2, and the cells were incubated for an additional 24 h. After treatment with neutral red medium, washing, and treatment with the ethanol/acetic acid solution, the absorption was measured on a TECAN microplate reader (TECAN, Grödig, Austria) at a wavelength of 540 nm. The light source which we used was a light-emitting diode (LED) matrix—an artificial solar light simulator Helios-iO, model LE-9ND55-H—5500K (SERIC Ltd., Tokyo, Japan).
# Cytotoxicity/phototoxicity were expressed as CC50/PC50 values (concentrations required for 50% cytotoxicity/phototoxicity), calculated using non-linear regression analysis (GraphPad Software GraphPad Prism 9.5.1, San Diego, CA, USA). The CC50 values were used to calculate the PIF (photo-irritancy factor) for each test substance, according to the following formula:
# PIF = Cytotoxicity (CC50)/Phototoxicity (PC50)
# MDA-MB-231 = experiment: MTT anti-proliferative test, MDA-MB-231; type: cell-based, human; conditions: for SI (selective index) MDA-MB-231: IC50 MCF-10A/IC50 MDA-MB-231
# Description: The MCF-10A cell line (normal human mammary epithelial cells) served as a reference control.
# All breast cell lines (MCF-10A, MCF-7, and MDA-MB-231) were purchased from the American Type Culture Collection—ATCC (Manassas, VA, USA). The MCF-7 and MDA-MB-231 were cultivated in Dulbecco’s modified Eagle’s medium (DMEM) and supplemented with 10% fetal bovine serum (FBS), 1% sodium pyruvate, and 1% MEM non-essential amino acids (NEAA) without antibiotics. The non-tumorigenic breast cell line (MCF-10A) was cultivated in DMEM medium (Sigma-Aldrich, St. Louis, MO, USA) and supplemented with 10% FBS, 1% sodium pyruvate, 1% non-essential amino acids (NEAA), 20 ng/mL human epithelia growth factor (hEGF), 10 μg/mL insulin, and 0.5 μg/mL hydrocortisone without antibiotics. All cell lines were maintained in a humidified atmosphere, with 5% CO2 at 37 °C.
# Using the standard MTT-dye reduction assay described by Mosmann, the anti-proliferative activity was tested. The method is based on the metabolism of the tetrazolium salt MTT to insoluble formazan. The formazan absorption was registered using a microplate reader at λ = 540 nm. The measured absorption is an indicator of cell viability and metabolic activity. Anti-proliferative activities were expressed as IC50 values (concentrations required for 50% inhibition of cell growth), calculated using non-linear regression analysis (GraphPad Software, San Diego, CA, USA).
# [1] = BALB 3T3, irradiated 2.4 J/cm^2 (PC50), read-out: IC50 of Mean ± SD, Phototoxicity
# [2] = BALB 3T3, irradiated, value in brackets, read-out: IC50, Phototoxicity (converted)
# [3] = Homo sapiens, MDA-MB-231, MTT, read-out: IC50 MDA-MB-231 (converted)
# [4] = Homo sapiens, MDA-MB-231, MTT, read-out: IC50 MDA-MB-231 (text)
# [5] = Homo sapiens, MDA-MB-231, MTT, read-out: IC50 of Mean ± SD, Anti-Proliferative Activity MDA-MB-231
# [6] = MTT, read-out: IC50 MDA-MB-231 (converted)
IC50 (MDA-MB-231; [3]),IC50 (MDA-MB-231; [4]),IC50 (MDA-MB-231; [5]),IC50 (MDA-MB-231; [6]),SMILES,IC50 (BALB 3T3 cells; [1]),IC50 (BALB 3T3 cells; [2]),PIF (photo-irritancy factor) (BALB 3T3 cells),SI (selective index) MDA-MB-231 (MDA-MB-231)
200 µM,62.9 µg/mL,62.9 ± 5.7 µg/mL,240 µM,"CCOC(=O)c1sc2nc(CC)nc(N)c2c1C [Compound 4, Ethyl 4-Amino-2-Ethyl-5-Methylthieno[2,3-d]Pyrimidine-6-Carboxylate]",2110 ± 122 µg/mL,8000 µM,1.2,5.8
170 µM,52.6 µg/mL,52.6 ± 3.2 µg/mL,160 µM,"CCOC(=O)Cc1nc(N)c2c(C)c(C(=O)OCC)sc2n1 [Compound 2, Ethyl 4-Amino-2-(2-Ethoxy-2-Oxoethyl)-5-Methylthieno[2,3-d]Pyrimidine-6-Carboxylate]",1080 ± 117 µg/mL,3300 µM,–,9.6
1500 µM,–,365 ± 26.6 µg/mL,1450 µM,"CCOC(=O)c1sc2nc(C)nc(N)c2c1C [Compound 5, Ethyl 4-Amino-2,5-Dimethyl-Thieno[2,3-d]Pyrimidine-6-Carboxylate]",2350 ± 114 µg/mL,9400 µM,1.2,1.7

# Reference: PMC10489817, “2-Alkyl-Substituted-4-Amino-Thieno[2,3-d]Pyrimidines: Anti-Proliferative Properties to In Vitro Breast Cancer Models” (Molecules, 2023)
